Laboratory results from US20060069132A1, “Azolecarboxamide herbicides” (priority 2004, published 2006).
Where two headings read alike, the source gives them in different places.

Experiments:
large crabgrass [1] = assay: Test C pre-/postemergence herbicide test; format: in vivo, Digitaria sanguinalis
In short: (§1)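 Visual injury scores run from 0 (no effect) to 100 (complete control), assessed relative to untreated controls 12 to 14 days after treatment in the greenhouse. Chemicals were formulated in a non-phytotoxic solvent mixture with surfactant and applied to soil after planting or to emerged plants at the 1- to 4-leaf stage.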

cocklebur = assay: Test C pre-/postemergence herbicide test; format: in vivo, Xanthium strumarium
In short: as §1

large crabgrass [2] = assay: Test B pre-/postemergence herbicide test; format: in vivo, Digitaria sanguinalis; conditions: for Plant response rating, Crabgrass, Large: preemergence; for pest or weed control at 125 g/ha / pest or weed control at 500 g/ha: Digitaria sanguinalis
In short: (§2)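 Formulation: non-phytotoxic solvent mix with surfactant. Timing: preemergence on seed and postemergence on 2–18 cm plants, applied concurrently. Readout after 13–15 d greenhouse: visual 0–100 control rating against controls.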

yellow nutsedge = assay: Test C pre-/postemergence herbicide test; format: in vivo, Cyperus esculentus
In short: as §1

Surinam grass = assay: Test B pre-/postemergence herbicide test; format: in vivo, Urochloa decumbens; conditions: for Plant response rating, Surinam Grass: preemergence; for pest or weed control at 125 g/ha / pest or weed control at 500 g/ha: Urochloa decumbens
In short: as §2

morningglory = assay: Test C pre-/postemergence herbicide test; format: in vivo, Ipomoea coccinea; set-up: key to Plant response rating, Morningglory: 0 = no effect, 100 = complete control
In short: as §1

eastern black nightshade = assay: Test C pre-/postemergence herbicide test; format: in vivo, Solanum ptycanthum
In short: as §1

johnsongrass = assay: Test C pre-/postemergence herbicide test; format: in vivo, Sorghum halepense
In short: as §1

rice = assay: Test B pre-/postemergence herbicide test; format: in vivo, Oryza sativa
In short: as §2

[3] = 125 g ai/ha, scale 0 (no effect) to 100 (complete control), visual, 12 to 14 days, preemergence
[4] = 250 g ai/ha, scale 0 to 100 (0 no effect, 100 complete control), visual, 12 to 14 days, preemergence
[5] = Preemergence, 500 g ai/ha, scale 0 to 100, 0 no effect, 100 complete control
[6] = 500 g ai/ha, visual rating 0-100, 0 no effect, 100 complete control
[7] = postemergence, 125 g ai/ha, visual rating, scale 0 (no effect) to 100 (complete control)
[8] = postemergence, 500 g ai/ha, visual rating, scale 0 (no effect) to 100 (complete control)
[9] = 125 g ai/ha, 0 to 100 scale, 0 is no effect, 100 is complete control

`CCCCOc1cccc(NC(=O)c2cc(C(C)(C)C)nn2CC)c1` [Compound 137] was tested, and the “Plant response rating (0 = no effect, 100 = complete control), Crabgrass, Large” value (large crabgrass [1]; 62 g ai/ha, preemergence) was 40, the “Plant response rating, Crabgrass, Large” value (large crabgrass [1]; [3]) was 70 and the “Plant response rating, Crabgrass, Large” value (large crabgrass [1]; [4]) was 100. For the same compound, the “Crabgrass, Large plant response rating” value (large crabgrass [1]; [5]) was 100, the “Plant response rating (0 = no effect, 100 = complete control), Cocklebur” value (cocklebur; 62 g ai/ha, preemergence) was 0 and the “Plant response rating, Cocklebur” value (cocklebur; [3]) was 0. For the same compound, the “Plant response rating, Cocklebur” value (cocklebur; [4]) was 0, the “Cocklebur plant response rating” value (cocklebur; [5]) was 0 and the “Plant response rating, Crabgrass, Large” value (large crabgrass [2]; [6]) was 100. For the same compound, the “Crabgrass, Large plant response rating” value (large crabgrass [2]; [7]) was 10, the “Crabgrass, Large plant response rating” value (large crabgrass [2]; [8]) was 30 and the “Plant response rating, Crabgrass, Large” value (large crabgrass [2]; [9]) was 80. The “Plant response rating (0 = no effect, 100 = complete control), Nutsedge, Yellow” value (yellow nutsedge; 62 g ai/ha, preemergence) was 0, the “Plant response rating, Nutsedge, Yellow” value (yellow nutsedge; [3]) was 0 and the “Nutsedge, Yellow plant response rating” value (yellow nutsedge; [5]) was 0. The “Plant response rating, Surinam Grass” value (Surinam grass; [6]) was 80, the “Surinam Grass plant response rating” value (Surinam grass; [7]) was 20 and the “Surinam Grass plant response rating” value (Surinam grass; [8]) was 70. For the same compound, the “Plant response rating, Surinam Grass” value (Surinam grass; [9]) was 20, the “Plant response rating (0 = no effect, 100 = complete control), Morningglory” value (morningglory; 62 g ai/ha, preemergence) was 0 and the “Plant response rating, Morningglory” value (morningglory; [3]) was 0. For the same compound, the “Morningglory plant response rating” value (morningglory; [5]) was 60, the “Plant response rating (0 = no effect, 100 = complete control), Nightshade” value (eastern black nightshade; 62 g ai/ha, preemergence) was 60 and the “Plant response rating, Nightshade” value (eastern black nightshade; [3]) was 85. The “Nightshade plant response rating” value (eastern black nightshade; [5]) was 90, the “Plant response rating (0 = no effect, 100 = complete control), Johnsongrass” value (johnsongrass; 62 g ai/ha, preemergence) was 0 and the “Plant response rating, Johnsongrass” value (johnsongrass; [3]) was 5. The “Johnsongrass plant response rating” value (johnsongrass; [5]) was 40 and the “Plant response rating, Rice” value (rice; 500 g ai/ha, visual rating 0-100, 0 no effect, 100 complete control, preemergence) was 10.
Work on `CCNC(=O)c1cccc(NC(=O)c2nn(C(C)(C)C)cc2Br)c1` [Compound 221, 4-bromo-1-(1,1-dimethylethyl)-N-[3-[(ethylamino)carbonyl]phenyl]-1H-pyrazole-3-carboxamide] yielded a pest or weed control at 62 g/ha (large crabgrass [1]; Digitaria sanguinalis, pre-emergence, 312 h, 62 g ai/ha, preemergence, scale 0 to 100, read-out: Plant response rating, Crabgrass, Large) of 0%, a pest or weed control at 125 g/ha (large crabgrass [1]; Digitaria sanguinalis, pre-emergence, 312 h, 125 g ai/ha, scale 0 (no effect) to 100 (complete control), visual, 12 to 14 days, read-out: Plant response rating, Crabgrass, Large) of 100% and a pest or weed control at 250 g/ha (large crabgrass [1]; Digitaria sanguinalis, pre-emergence, 312 h, 250 g ai/ha, scale 0-100, read-out: Plant response rating, Crabgrass, Large) of 100%. The pest or weed control at 500 g/ha (large crabgrass [1]; Digitaria sanguinalis, pre-emergence, 312 h, 500 g ai/ha, scale 0 to 100 (0 no effect, 100 complete control), visual, 12 to 14 days, read-out: Plant response rating, Crabgrass, Large) was 100%, the pest or weed control at 62 g/ha (cocklebur; Xanthium strumarium, pre-emergence, 312 h, 62 g ai/ha, preemergence, scale 0 to 100, read-out: Plant response rating, Cocklebur) was 0% and the pest or weed control at 125 g/ha (cocklebur; Xanthium strumarium, pre-emergence, 312 h, 125 g ai/ha, scale 0 (no effect) to 100 (complete control), visual, 12 to 14 days, read-out: Plant response rating, Cocklebur) was 0%. It also gave a pest or weed control at 250 g/ha (cocklebur; Xanthium strumarium, pre-emergence, 312 h, 250 g ai/ha, scale 0-100, read-out: Plant response rating, Cocklebur) of 0%, a pest or weed control at 125 g/ha (large crabgrass [2]; post-emergence, postemergence, 125 g ai/ha, visual rating, scale 0 (no effect) to 100 (complete control), read-out: Crabgrass, Large plant response rating) of 0% and a pest or weed control at 500 g/ha (large crabgrass [2]; post-emergence, postemergence, 500 g ai/ha, visual rating, scale 0 (no effect) to 100 (complete control), read-out: Crabgrass, Large plant response rating) of 10%. For the same compound, the pest or weed control at 125 g/ha (large crabgrass [2]; pre-emergence, 125 g ai/ha, 0 = no effect, 100 = complete control, read-out: Crabgrass, Large plant response rating (0 to 100 scale)) was 80%, the pest or weed control at 500 g/ha (large crabgrass [2]; pre-emergence, 500 g ai/ha, visual rating, 0 = no effect, 100 = complete control, read-out: Plant response rating, Crabgrass, Large) was 100% and the pest or weed control at 62 g/ha (yellow nutsedge; Cyperus, pre-emergence, 62 g ai/ha, preemergence, scale 0 to 100, read-out: Plant response rating, Nutsedge, Yellow) was 0%. The pest or weed control at 125 g/ha (yellow nutsedge; Cyperus, pre-emergence, 125 g ai/ha, scale 0 (no effect) to 100 (complete control), visual, 12 to 14 days, read-out: Plant response rating, Nutsedge, Yellow) was 0%, the pest or weed control at 250 g/ha (yellow nutsedge; Cyperus, pre-emergence, 250 g ai/ha, scale 0-100, read-out: Plant response rating, Nutsedge, Yellow) was 0% and the pest or weed control at 500 g/ha (yellow nutsedge; Cyperus, pre-emergence, 500 g ai/ha, scale 0 to 100 (0 no effect, 100 complete control), visual, 12 to 14 days, read-out: Plant response rating, Nutsedge, Yellow) was 0%. For the same compound, the pest or weed control at 125 g/ha (Surinam grass; post-emergence, postemergence, 125 g ai/ha, visual rating, scale 0 (no effect) to 100 (complete control), read-out: Surinam Grass plant response rating) was 0%, the pest or weed control at 500 g/ha (Surinam grass; post-emergence, postemergence, 500 g ai/ha, visual rating, scale 0 (no effect) to 100 (complete control), read-out: Surinam Grass plant response rating) was 10% and the pest or weed control at 125 g/ha (Surinam grass; pre-emergence, 125 g ai/ha, 0 = no effect, 100 = complete control, read-out: Surinam Grass plant response rating (0 to 100 scale)) was 0%. The pest or weed control at 500 g/ha (Surinam grass; pre-emergence, 500 g ai/ha, visual rating, 0 = no effect, 100 = complete control, read-out: Plant response rating, Surinam Grass) was 30%, the pest or weed control at 62 g/ha (morningglory; Ipomoea, pre-emergence, 62 g ai/ha, preemergence, scale 0 to 100, read-out: Plant response rating, Morningglory) was 0% and the pest or weed control at 125 g/ha (morningglory; Ipomoea, pre-emergence, 125 g ai/ha, scale 0 (no effect) to 100 (complete control), visual, 12 to 14 days, read-out: Plant response rating, Morningglory) was 0%. It also gave a pest or weed control at 250 g/ha (morningglory; Ipomoea, pre-emergence, 250 g ai/ha, scale 0-100, read-out: Plant response rating, Morningglory) of 0%, a pest or weed control at 500 g/ha (morningglory; Ipomoea, pre-emergence, 500 g ai/ha, scale 0 to 100 (0 no effect, 100 complete control), visual, 12 to 14 days, read-out: Plant response rating, Morningglory) of 0% and a pest or weed control at 62 g/ha (eastern black nightshade; pre-emergence, 62 g ai/ha, preemergence, scale 0 to 100, read-out: Plant response rating, Nightshade) of 30%. For the same compound, the pest or weed control at 125 g/ha (eastern black nightshade; pre-emergence, 125 g ai/ha, scale 0 (no effect) to 100 (complete control), visual, 12 to 14 days, read-out: Plant response rating, Nightshade) was 50%, the pest or weed control at 250 g/ha (eastern black nightshade; pre-emergence, 250 g ai/ha, scale 0-100, read-out: Plant response rating, Nightshade) was 70% and the pest or weed control at 500 g/ha (eastern black nightshade; pre-emergence, 500 g ai/ha, scale 0 to 100 (0 no effect, 100 complete control), visual, 12 to 14 days, read-out: Plant response rating, Nightshade) was 100%. It also gave a pest or weed control at 62 g/ha (johnsongrass; Sorghum halepense, pre-emergence, 62 g ai/ha, preemergence, scale 0 to 100, read-out: Plant response rating, Johnsongrass) of 0%, a pest or weed control at 125 g/ha (johnsongrass; Sorghum halepense, pre-emergence, 125 g ai/ha, scale 0 (no effect) to 100 (complete control), visual, 12 to 14 days, read-out: Plant response rating, Johnsongrass) of 0% and a pest or weed control at 250 g/ha (johnsongrass; Sorghum halepense, pre-emergence, 250 g ai/ha, scale 0-100, read-out: Plant response rating, Johnsongrass) of 10%. For the same compound, the pest or weed control at 500 g/ha (johnsongrass; Sorghum halepense, pre-emergence, 500 g ai/ha, scale 0 to 100 (0 no effect, 100 complete control), visual, 12 to 14 days, read-out: Plant response rating, Johnsongrass) was 80%, the plant injury at 125 g/ha (rice; Oryza sativa, pre-emergence, 336 h, 125 g ai/ha, 0 = no effect, 100 = complete control, read-out: Rice plant response rating (0 to 100 scale)) was 0% and the plant injury at 500 g/ha (rice; Oryza sativa, pre-emergence, 336 h, 500 g ai/ha, visual rating, 0 = no effect, 100 = complete control, read-out: Plant response rating, Rice) was 20%.
